Three molecules from patent publication US8618178B2, “Method and substances for treating T-cell mediated autoimmune diseases” (Eberhard-Karls-Universitaet Tuebingen Universitaetsklinikum, priority 2006, dated 2013) can be followed below.

Holding throughout (assay type): cell-based, mouse
The test system of one test is BMDC. Kind of test: Measurement of reactive oxygen species (ROS) in DC with dichlorofluorescein, flow cytometry. The note with it: for effect on DMF-induced ROS increase in DC: added to DMF, 1 mM. Here is the method:
For the measurement of reactive oxygen species (ROS) in DC and APC, the fluorescent dye 2′,7′ dichlorofluorescein (H2 DCFDA, Molecular Probes, Eugene, USA) was used. 5×10^5 DC were preincubated in 1 ml of RPMI medium (without mercaptoethanol) for 60 mins at 37° C. in the incubator with 1% DMSO or 10 μg/ml DMF+/−NAC (1 mM) or GSX (1 mM). After this preincubation, 1 μM/ml H2 DCFDA was added and the cells incubated for a further 30 mins at 37° C. Within one hour, the fluorescence produced was detected using flow cytometry (FL1).
(§1) As antigen presenting cells (APC), T cell depleted spleen cells from syngenic mice were used. Dendritic cells (DC) which were obtained from bone marrow (BMDC) and cultured with GM-CSF were used for the relevant experiments on day 7 of culturing. For the experiment, in each case an equal number of APC were cultured either with the medium alone, with L-BSO (C8H18N2O3S, 0.5 mM), dimethyl sulfoxide DMSO(C2H6OS), dimethyl fumarate DMF (C6H8O4, dissolved in DMSO, 70 μM), or calcium monomethyl fumarate (MMF; CaC10H10O8, 200 μM). All substances except for MMF (Fumapharm) were purchased from Sigma-Aldrich. At the respective stated times (see below) the cells were either analyzed directly for their GSH content, used for T cell stimulation or stimulated for IL-2 production with Escherichia coli lipopolysaccharides 055.B5 (Sigma-Aldrich) or CpG-DNA 1668 (MWG Biotech) and IL-4 (Stratmann). In order to raise the GSH level again, 1 mM GSH-OEt (C12H21N3O6S; Sigma-Aldrich) or 1 mM NAC (Sigma-Aldrich) was added.
For testing the potential of pharmaceutical substances to induce the ROS, the following procedure was developed: for the measurement of reactive oxygen species (ROS) in cells, the fluorescent dye 2′,7′ dichlorofluorescein (H2 DCFDA) is used. The absorption spectrum of the substance is 492-495 nm and the emission spectrum lies in the range between 517-527 nm. On induction of cell stress, e.g., by the administration of ROS-causing reagents, oxidation of the H2 DCFDA to DCFDA+H2 occurs. The fluorescence arising as a result can be detected using flow cytometry (FL1).
On the technique in general: A flow cytometer gives signals particle by particle.

For another test, the system named is IL-12. Briefly: IL-12 production by DC, ELISA of culture supernatants. The note with it: for effect on IL-12 suppression caused by GSH depletion in DC: exogenous addition, 1 mM. On the procedure: (§2) IL-4, IL-10, IL-12 and interferon-γ were determined using the ELISA (enzyme linked immunosorbent assay) set or with the use of individual components from BD BioSciences. IL-23 in the supernatant was determined using the ELISA set (eBioscience). For intracytoplasmic cytokine analyses, the T cells were restimulated with PMA/ionomycin or with APC and peptide in the presence of brefeldin A, then fixed and permeabilized and stained. For the surface staining, anti-CD4 or KJ1-26 antibodies were used; the cytokine antibodies (PE labeled) were all obtained from BD Pharmingen.
as §1, with “used for T cell stimulation or stimulated for IL-2 production with Escherichia coli lipopolysaccharides” left out
A general note: ELISA stands for enzyme-linked immunosorbent assay.

Another test concerns IL-23. Briefly: IL-23 production by DC, ELISA of culture supernatants. The note with it: GSH-OEt added to DMF. On the procedure: as §2
as §1, with “added. The GSH reservoirs in mice were depleted by feeding with DMF or MMF, and in man by treatment with Fumaderm®.” for “added.”

The subject of another test is IL-10. Kind of test: IL-10 production by DC, ELISA of culture supernatants. The note with it: GSH-OEt added to DMF. Here is the method:
as §2
as §1, with “All substances except for MMF (Fumapharm) were purchased from Sigma-Aldrich.” left out, “In order to raise the GSH level again, 1 mM GSH-OEt (C12H21N3O6S; Sigma-Aldrich) or 1 mM NAC (Sigma-Aldrich) was added.” left out

In the case of `CCOC(=O)CNC(=O)[C@H](CS)NC(=O)CC[C@H](N)C(=O)O` [GSH-OEt, GSH ethyl ester], in the test with BMDC, the “effect on DMF-induced ROS increase in DC” value is recorded as “completely neutralized”. Also, the “effect on IL-12 suppression caused by GSH depletion in DC” value with IL-12 was “neutralized the IL-12 suppression”. For the same molecule, the “IL-23 production in DC, added to DMF” value in the test with IL-23 is “restored IL-23 production”. The “IL-10 production in DC, added to DMF” value in the test with IL-10 is given as “decreased IL-10 production”.

Take `OO` [H2O2, hydrogen peroxide]: in the test with BMDC (dichlorofluorescein, flow cytometry), the “intracellular ROS in DC” value was “induction of ROS”. In addition, in the test with IL-12 (after stimulation with LPS), the “IL-12 production by DC” value is reported as “lower the production of IL-12”.

As for `CC(=O)N[C@@H](CS)C(=O)O` [NAC, N-acetylcysteine], in the test on BMDC, the “effect on DMF-induced ROS increase in DC” value is given as “completely neutralized”. The “effect on IL-12 suppression caused by GSH depletion in DC” value in the test with IL-12 is on record as “same effects as GSH-OEt”.
